Where “and” joins values, the source holds several entries; their conditions need not be identical. Equal entries are not always repeated.
Molecular target: Mitogen-activated protein kinase kinase kinase kinase 1 (Homo sapiens, UniProt Q92918)
Assay: HPK1-SLP76 TR-FRET ASSAY

Chain of Mitogen-activated protein kinase kinase kinase kinase 1 (Q92918 whole entry): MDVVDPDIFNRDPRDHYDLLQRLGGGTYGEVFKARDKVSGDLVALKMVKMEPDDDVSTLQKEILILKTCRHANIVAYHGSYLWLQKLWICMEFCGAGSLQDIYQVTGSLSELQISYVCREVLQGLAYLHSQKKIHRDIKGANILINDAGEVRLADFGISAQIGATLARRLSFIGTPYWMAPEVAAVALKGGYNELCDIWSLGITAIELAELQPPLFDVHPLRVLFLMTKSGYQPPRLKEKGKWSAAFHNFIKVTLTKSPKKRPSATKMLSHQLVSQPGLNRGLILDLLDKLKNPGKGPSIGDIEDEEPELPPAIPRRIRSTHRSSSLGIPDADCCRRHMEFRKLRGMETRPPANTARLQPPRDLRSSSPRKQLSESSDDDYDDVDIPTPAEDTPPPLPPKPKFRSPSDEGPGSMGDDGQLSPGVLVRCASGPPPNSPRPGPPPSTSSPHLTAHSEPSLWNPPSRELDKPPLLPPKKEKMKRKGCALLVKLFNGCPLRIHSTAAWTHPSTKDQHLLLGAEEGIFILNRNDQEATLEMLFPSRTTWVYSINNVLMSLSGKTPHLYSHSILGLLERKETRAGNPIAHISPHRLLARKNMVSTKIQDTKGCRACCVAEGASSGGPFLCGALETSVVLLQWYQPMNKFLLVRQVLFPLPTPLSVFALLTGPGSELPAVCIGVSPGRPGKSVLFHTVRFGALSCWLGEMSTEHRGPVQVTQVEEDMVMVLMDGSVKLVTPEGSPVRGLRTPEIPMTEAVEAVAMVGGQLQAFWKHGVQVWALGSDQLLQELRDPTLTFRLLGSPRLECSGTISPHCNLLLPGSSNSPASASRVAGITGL

| IC50 | Structure (SMILES) |
| --- | --- |
| 0.08 nM | Cc1c(-c2cc3nc(Nc4ccc(C5(S(C)(=O)=O)CC5)cc4)ncc3c(N)c2F)cnc2c1NCCO2 [WO2022098806, Compound 2-148] |
| 203 nM | COc1cc2c(cc1Nc1ncc3ccc(-c4cccc(NCC(C)=O)c4)cc3n1)CN(C)CC2 [WO2022098806, Compound 1-98] |
| 228 nM | COc1cc2c(cc1Nc1ncc3ccc(NC4CCCC(O)C4)cc3n1)CN(C)CC2 (configuration not stated) [WO2022098806, Compound 3-39] |
| 292 nM | COc1cc2c(cc1Nc1ncc3ccc(NCC4CCC(=O)N4)cc3n1)CN(C)CC2 (configuration not stated) [WO2022098806, Compound 3-45] |
| 30 nM | COc1cc2c(cc1Nc1ncc3ccc(Nc4ccc5c(c4)C(=O)NCC5)cc3n1)CN(C)CC2 [WO2022098806, Compound 3-21] |
| 120 nM | COc1cc2c(cc1Nc1ncc3ccc(-c4cccc(C5CCC(=O)N5)c4)cc3n1)CN(C)CC2 (configuration not stated) [WO2022098806, Compound 1-99] |
| 11 nM | Cc1c(-c2cc3nc(Nc4ccccc4C4CC4)ncc3c(N)c2F)cnc2c1NCCO2 [WO2022098806, Compound 2-26] |
| 0.22 nM | CNC(=O)[C@@H](C)c1ccc(Nc2ncc3cc(F)c(-c4cnc5c(c4C)NCCO5)cc3n2)cc1 [WO2022098806, Compound 1-116] |
| 365 nM | COc1cc2c(cc1Nc1ncc3ccc(NC[C@@H]4CC(=O)N(C)C4)cc3n1)CN(C)CC2 [WO2022098806, Compound 3-59] |
| 0.19 nM | Cc1c(-c2cc3nc(Nc4cccc(S(=O)(=O)NC(C)(C)C)c4)ncc3c(N)c2F)cnc2c1NCCO2 [WO2022098806, Compound 2-33] |
| 25 nM | Cc1ccc(F)cc1-c1cc2nc(Nc3ccc(CS(C)(=O)=O)cc3)ncc2c(N)c1F [WO2022098806, Compound 2-172] |
| 807 nM | COc1cc2c(cc1Nc1ncc3ccc(N4CC5CCS(=O)(=O)C5C4)cc3n1)CN(C)CC2 (configuration not stated) [WO2022098806, Compound 3-60] |
| 0.03 nM | Cc1c(-c2cc3nc(Nc4ccc5c(c4)CN(C(C)C)CC5)ncc3c(N)c2F)cnc2c1NCCO2 [WO2022098806, Compound 2-76] |
| 0.08 nM | COC1CC(NC(=O)c2ccc(Nc3ncc4c(N)c(F)c(-c5cnc6c(c5C)NCCO6)cc4n3)cc2)C1 (configuration not stated) [WO2022098806, Compound 2-58] |
| 0.07 nM | CNC(=O)[C@H](C)c1ccc(Nc2ncc3cc(F)c(-c4cnc5c(c4C)NCCO5)cc3n2)cc1 [WO2022098806, Compound 1-117] |
| 0.03 nM | Cc1c(-c2cc3nc(Nc4ccc5c(c4)C4CC5CN4C)ncc3c(N)c2F)cnc2c1NCCO2 (configuration not stated) [WO2022098806, Compound 2-79] |
| 0.05 nM and 0.03 nM | CN1CCc2ccc(Nc3ncc4c(N)c(F)c(-c5cnc6c(c5Cl)NCCO6)cc4n3)cc2C1 [WO2022098806, Compound 2-124] |
| 0.03 nM | Cc1c(-c2cc3nc(Nc4ccc5c(c4)CN(C)[C@@H](C)C5)ncc3c(N)c2F)cnc2c1NCCO2 [WO2022098806, Compound 2-85] |
| 0.06 nM | Cc1c(-c2cc3nc(Nc4ccc(CS(C)(=O)=O)cc4F)ncc3c(N)c2F)cnc2c1NCCO2 [WO2022098806, Compound 2-155] |
| 90 nM | COc1cc2c(cc1Nc1ncc3ccc(NCC4(C)CCOC4)cc3n1)CN(C)CC2 (configuration not stated) [WO2022098806, Compound 3-75] |
| 0.04 nM | Cc1c(-c2cc3nc(Nc4ccc([S+](C)[O-])cc4)ncc3c(N)c2F)cnc2c1NCCO2 (configuration not stated) [WO2022098806, Compound 2-170] |

| IC50 | Structure (SMILES) |
| --- | --- |
| 0.04 nM | Cc1c(-c2cc3nc(Nc4ccc5c(c4)CCN(C)CC5)ncc3c(N)c2F)cnc2c1NCCO2 [WO2022098806, Compound 2-119] |
| 0.15 nM | CC(=O)N1CCC[C@@H]1c1ccc(Nc2ncc3c(N)c(F)c(-c4cnc5c(c4C)NCCO5)cc3n2)cc1 [WO2022098806, Compound 2-28] |
| 205 nM and 93 nM | COc1cc2c(cc1Nc1ncc3ccc(N4CC5(CCCNCC5)OC4=O)cc3n1)CN(C)CC2 (configuration not stated) [WO2022098806, Compound 3-5] |
| 0.05 nM | Cc1c(-c2cc3nc(Nc4cc5c(cc4F)CCN(C(C)C)C5)ncc3c(N)c2F)cnc2c1NCCO2 [WO2022098806, Compound 2-171] |
| 0.05 nM | Cc1c(-c2cc3nc(Nc4ccc(N5CCOC5=O)cc4)ncc3c(N)c2F)cnc2c1NCCO2 [WO2022098806, Compound 2-67] |
| 0.01 nM | CCS(=O)(=O)Cc1ccc(Nc2ncc3c(N)c(F)c(-c4cnc5c(c4C)NCCO5)cc3n2)c(OC)c1 [WO2022098806, Compound 2-89] |
| 0.1 nM | Cc1c(-c2cc3nc(Nc4ccc(CS(C)(=O)=O)cc4)ncc3c(N)c2F)cnc2c1NCC(C)(C)O2 [WO2022098806, Compound 2-165] |
| 0.09 nM | Cc1c(-c2cc3nc(Nc4ccc5c(c4)CC(C)(C)N(C)C5)ncc3c(N)c2F)cnc2c1NCCO2 [WO2022098806, Compound 2-126] |
| 0.25 nM | CNC(=O)c1ccc(Nc2ncc3c(N)cc(N4C(=O)OC[C@@H]4C)cc3n2)c(OC)c1 [WO2022098806, Compound 3-79] |
| 0.15 nM | Cc1c(-c2cc3nc(Nc4ccc5c(c4)CN(CC(C)(C)O)C5=O)ncc3c(N)c2F)cnc2c1NCCO2 [WO2022098806, Compound 2-42] |
| 11 nM | CCCC(=O)Nc1cncc(-c2ccc3cnc(Nc4cc5c(cc4OC)CCNC5)nc3c2)c1 [WO2022098806, Compound 1-52] |
| 0.07 nM | CN1Cc2cc(Nc3ncc4c(N)c(F)c(-c5cnc6c(c5Cl)NCCO6)cc4n3)ccc2C2(CC2)C1 [WO2022098806, Compound 2-152] |
| 0.05 nM | Cc1c(-c2cc3nc(Nc4ccc5c(c4)CN(C)CC5)ncc3c(N)c2F)cnc2c1NCCO2 [WO2022098806, Compound 2-70] |
| 189 nM | COc1cc2c(cc1Nc1ncc3ccc(N4CC(O)(C(F)(F)F)C4)cc3n1)CN(C)CC2 [WO2022098806, Compound 3-54] |
| 11 nM | Cc1ccc(F)cc1-c1cc2nc(Nc3ccc4c(c3)CN(C)CC4)ncc2c(N)c1F [WO2022098806, Compound 2-174] |
| 0.12 nM | CC(=O)N[C@@H]1CCc2cc(Nc3ncc4c(N)c(F)c(-c5cnc6c(c5C)NCCO6)cc4n3)ccc21 [WO2022098806, Compound 2-10] |
| 149 nM | COc1cc2c(cc1Nc1ncc3ccc(NCC4CNC(=O)O4)cc3n1)CN(C)CC2 (configuration not stated) [WO2022098806, Compound 3-26] |
| 0.05 nM and 0.07 nM and 0.04 nM | Cc1c(-c2cc3nc(Nc4ccc(CS(C)(=O)=O)cc4)ncc3c(N)c2F)cnc2c1NCCO2 [WO2022098806, Compound 2-114] |
| 0.07 nM | COc1cc2c(cc1Nc1ncc3c(N)c(F)c(-c4cnc5c(c4C)NCCO5)c(Cl)c3n1)CN(C(C)C)CC2 [WO2022098806, Compound 2-106] |
| 0.19 nM | Cc1ccncc1-c1cc2nc(Nc3ccc(CS(C)(=O)=O)cc3)ncc2c(N)c1F [WO2022098806, Compound 2-44] |
| 0.08 nM and 0.2 nM and 0.04 nM | Cc1c(-c2c(F)c(N)c3cnc(Nc4ccc5c(c4)CN(C(C)C)CC5)nc3c2Cl)cnc2c1NCCO2 [WO2022098806, Compound 2-102] |

| IC50 | Structure (SMILES) |
| --- | --- |
| 148 nM | COc1cc2c(cc1Nc1ncc3ccc(N(C)CC4CNC(=O)O4)cc3n1)CN(C)CC2 (configuration not stated) [WO2022098806, Compound 3-30] |
| 0.08 nM | COc1cc2c(cc1Nc1ncc3c(N)cc(N4C(=O)OC[C@@H]4C)cc3n1)CN(C)CC2 [WO2022098806, Compound 3-17] |
| 0.04 nM | Cc1c(-c2cc3nc(Nc4ccc5c(c4)CN(C)[C@H](C)C5)ncc3c(N)c2F)cnc2c1NCCO2 [WO2022098806, Compound 2-86] |
| 17 nM | COc1cc2c(cc1Nc1ncc3c(N)c(F)c(-c4ccccc4-c4ccnn4C)cc3n1)CN(C)CC2 [WO2022098806, Compound 2-65] |
| 25 nM | CC[C@H]1COC(=O)N1c1ccc2cnc(Nc3cc4c(cc3OC)CCN(C)C4)nc2c1 [WO2022098806, Compound 3-14] |
| 0.04 nM | Cc1c(-c2cc3nc(Nc4ccc5c(c4)CN(C)CCC5)ncc3c(N)c2F)cnc2c1NCCO2 [WO2022098806, Compound 2-117] |
| 0.4 nM | Cc1c(-c2c(F)c(N)c3cnc(Nc4ccc(CS(=O)(=O)C(C)C)cc4)nc3c2Cl)cnc2c1NCCO2 [WO2022098806, Compound 2-133] |
| 1.05 nM | CC[C@@H]1COC(=O)N1c1ccc2cnc(Nc3cc4c(cc3OC)CCN(C)C4)nc2c1 [WO2022098806, Compound 3-13] |
| 0.08 nM | Cc1c(-c2cc3nc(Nc4ccc5c(c4)C(C)(C)OC5=O)ncc3c(N)c2F)cnc2c1NCCO2 [WO2022098806, Compound 2-41] |
| 0.03 nM | Cc1c(-c2cc3nc(Nc4ccc5c(c4)CN(C)C(C)(C)C5)ncc3c(N)c2F)cnc2c1NCCO2 [WO2022098806, Compound 2-128] |
| 0.7 nM | COc1cc2c(cc1Nc1ncc3c(N)c(F)c(-c4cnc5c(c4C)NCCO5)cc3n1)C(C)N(C)C(C)C2 (configuration not stated) [WO2022098806, Compound 2-48] |
| 0.08 nM | Cc1c(-c2cc3nc(Nc4ccc(CC(=O)N5CCOCC5)cc4)ncc3cc2F)cnc2c1NCCO2 [WO2022098806, Compound 1-133] |
| 0.08 nM | COc1cc([C@@H]2CCN(C)C2=O)ccc1Nc1ncc2c(N)c(F)c(-c3cnc4c(c3C)NCCO4)cc2n1 [WO2022098806, Compound 2-54] |
| 865 nM | CC(=O)N1CCc2ccc(Nc3ncc4c(N)c(F)c(-c5cnc6c(c5C)NCCO6)cc4n3)cc2C1 [WO2022098806, Compound 2-12] |
| 0.09 nM | Cc1c(-c2c(F)c(N)c3cnc(Nc4cc5c(cc4F)CCN(C)C5)nc3c2Cl)cnc2c1NCCO2 [WO2022098806, Compound 2-184] |
| 20 nM | COc1cc2c(cc1Nc1ncc3ccc(-c4cccc(CO)c4)cc3n1)CNCC2 [WO2022098806, Compound 1-60] |
| 0.27 nM | Cc1c(-c2cc3nc(Nc4ccccc4)ncc3c(N)c2F)cnc2c1NCCO2 [WO2022098806, Compound 2-25] |
| 0.07 nM | Cc1c(-c2cc3nc(Nc4ccc(CS(=O)(=O)C(C)C)cc4)ncc3c(N)c2F)cnc2c1NCCO2 [WO2022098806, Compound 2-157] |
| 0.05 nM | Cc1c(-c2cc3nc(Nc4ccc5c(c4)CN(C)CC5)ncc3c(N)c2F)cnc2c1NCC(C)O2 (configuration not stated) [WO2022098806, Compound 2-141] |
| 14 nM | COc1nc(C2(C#N)CC2)ccc1Nc1ncc2c(N)c(F)c(-c3cnc4c(c3C)NCCO4)cc2n1 [WO2022098806, Compound 2-68] |
